This is an account of results in ChEMBL document CHEMBL1201862, “PubChem BioAssay data set” (2004).

What all share (experiment): NCI anticancer screen, dose series, 48 h
In experiment [1] the test system is ACHN.
Experiment [2] has as its system CAKI-1.
Experiment [3] concerns COLO 205.
The subject of experiment [4] is DU-145.
The subject of experiment [5] is HCC 2998.
For experiment [6], the system named is HCT-15.
The test system of experiment [7] is HT-29.
Experiment [8] concerns IGROV-1.
The subject of experiment [9] is KM12.
Experiment [10] has as its system MDA-MB-435.
For experiment [11], the system named is MOLT-4.
The test system of experiment [12] is NCI-H226.
Experiment [13] relates to NCI-H23.
The subject of experiment [14] is OVCAR-3.
The subject of experiment [15] is SK-MEL-28.
The subject of experiment [16] is SK-OV-3.
Experiment [17] deals with T47D.
Experiment [18] has as its system U-251.
Experiment [19] concerns UACC-257.
In experiment [20] the test system is UACC-62.

Molecules are shown by their SMILES.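 Compound exposure: 48 hours, 5 concentrations, 96-well plates. GI50: concentration for 50% inhibition of growth.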 Active and inactive are the calls of the source. Rule as the data show it: active = GI50 up to about 1.1 µM and inactive = higher. Where only a bound is given, the exact number is not on record here.

For `Cc1ccc(OCC2OC(n3cnc4c(Cl)nc(Nc5cc(Cl)cc(Cl)c5)nc43)CC2Oc2ccc(C)cc2)cc1` (centres undefined), the GI50 is > 100 µM (inactive) in experiment [1]; > 100 µM (inactive) in experiment [2]; > 100 µM (inactive) in [3]; > 100 µM (inactive) in experiment [4]; > 100 µM (inactive) in experiment [5]; greater than 100 µM in [6]. In addition, the GI50 in [7], in [8], in experiment [9], in [10], in experiment [11] and in [12] was > 100 µM (inactive) in each case. For the same compound, the GI50 in [13] is > 100 µM (inactive); in experiment [14] it was > 100 µM (inactive); in experiment [15], > 100 µM (inactive); in experiment [16] it was > 100 µM (inactive); in experiment [17], 48.9 µM (inactive); in experiment [18], > 100 µM (inactive). Besides, the GI50 in experiment [19] and in [20] was > 100 µM (inactive) in each case.

With `CCOC(=O)c1sc2c(c1OC(=O)c1ccco1)c(=O)n(-c1ccccc1)c(=S)n2-c1ccccc1`, the GI50 was 27.5 µM (inactive) in experiment [1]; 34.3 µM (inactive) in experiment [2]; 19.1 µM (inactive) in experiment [3]; 52.6 µM (inactive) in [4]; 31.4 µM (inactive) in experiment [5]; 32.1 µM in experiment [6]. The GI50 was 55.2 µM (inactive) in experiment [7]; 17.9 µM (inactive) in [8]; 33.4 µM (inactive) in experiment [9]; 28.1 µM (inactive) in experiment [10]; 17.2 µM (inactive) in [11]; 22.1 µM (inactive) in experiment [12]. In addition, the GI50 in [13] was 28.7 µM (inactive); in [14] it was 26.5 µM (inactive); in experiment [15], 60.5 µM (inactive); in experiment [16] it was > 100 µM (inactive); in experiment [17] it was 65.6 µM (inactive); in [18], 35.5 µM (inactive). For the same compound, the results for the GI50 in experiment [19] and in [20] were 90.2 µM (inactive) and 26.2 µM (inactive), respectively.

In the case of `S=C(N/N=C\C(=N/NC(=S)N1CCCCC1)c1ccccc1)N1CCCCC1`, the GI50 was 1.69 µM (inactive) in experiment [1]; 2.15 µM (inactive) in [2]; 2.03 µM (inactive) in experiment [3]; 1.57 µM (inactive) in experiment [4]; 2.08 µM (inactive) in experiment [5]; 2.4 µM in experiment [6]. The GI50 is 2.23 µM (inactive) in [7]; 1.76 µM (inactive) in [8]; 2.03 µM (inactive) in experiment [9]; 1.91 µM (inactive) in experiment [10]; 1.84 µM (inactive) in [12]; 2.42 µM (inactive) in [13]. Also, the GI50 in experiment [14] is 1.74 µM (inactive); in experiment [15], 1.9 µM (inactive); in experiment [16], 1.91 µM (inactive); in experiment [17], 5.4 µM (inactive); in experiment [18], 1.84 µM (inactive); in experiment [19], 2.14 µM (inactive). Further, the GI50 in experiment [20] is 1.99 µM (inactive).

Turning to `Cc1nn2c(=O)c([N+](=O)[O-])c(/C=C/c3ccco3)nc2s1`, the GI50 in [1] was 60.5 µM (inactive); in [2] it was 52.6 µM (inactive); in experiment [3], 61.4 µM (inactive); in experiment [4] it was 40.5 µM (inactive); in [5] it was > 100 µM (inactive); in experiment [6], 41.5 µM. Moreover, the GI50 in experiment [7] was 56.1 µM (inactive); in [8], 51.8 µM (inactive); in experiment [9] it was 39.2 µM (inactive); in experiment [10] it was 21.1 µM (inactive); in experiment [11], 31.7 µM (inactive); in experiment [12], 77.3 µM (inactive). The GI50 was 50.5 µM (inactive) in [13]; 38.8 µM (inactive) in [14]; 48.6 µM (inactive) in [15]; 43.6 µM (inactive) in experiment [16]; 27.8 µM (inactive) in experiment [17]; 29.4 µM (inactive) in experiment [18]. In addition, the GI50 is 87.5 µM (inactive) in experiment [19] and 65.3 µM (inactive) in experiment [20].

`COC1CC(OC2C(C)OC(OC3C(C)OC(OC4C(C)OC(O[C@H]5CC[C@@]6(C)C(=CC[C@]7(O)[C@@H]6C[C@@H](OC(C)=O)[C@@]6(C)[C@]7(O)CC[C@@]6(O)C(C)=O)C5)CC4OC)CC3OC)CC2OC)OC(C)C1O` (some centres undefined): the GI50 was > 25 µM (inactive) in [1]; > 25 µM (inactive) in experiment [2]; > 25 µM (inactive) in experiment [3]; > 25 µM (inactive) in [4]; > 25 µM (inactive) in experiment [5]; greater than 25 µM in experiment [6]. In addition, the GI50 in [7], in experiment [8], in experiment [9], in experiment [10], in experiment [11] and in experiment [12] was > 25 µM (inactive) each time. Moreover, the GI50 in [13], in experiment [14], in [16], in experiment [17], in experiment [18] and in experiment [19] was > 25 µM (inactive) in each case. The GI50 in experiment [20] is > 25 µM (inactive).

With `N[C@H](C(=O)O)[C@@H]1CC(Br)=NO1`, the GI50 in experiment [1] was 73.5 µM (inactive); in experiment [2], 90.2 µM (inactive); in [3], 71.3 µM (inactive); in [4], > 100 µM (inactive); in [5], 59.6 µM (inactive); in [6], 54.1 µM. Besides, the GI50 in [7] is 57.5 µM (inactive); in experiment [9], 75.2 µM (inactive); in experiment [10], 95.3 µM (inactive); in [11] it was 59.3 µM (inactive); in experiment [12], > 100 µM (inactive); in [13] it was > 100 µM (inactive). The GI50 in experiment [14] was > 100 µM (inactive); in experiment [16], 69.5 µM (inactive); in experiment [17], > 100 µM (inactive); in experiment [18] it was > 100 µM (inactive); in experiment [19] it was > 100 µM (inactive); in experiment [20] it was 85.5 µM (inactive).

Consider `O=C1CCCC2(c3ccccc3)Nc3ccccc3N12` (centres undefined), for which the GI50 is > 100 µM (inactive) in experiment [1]; > 100 µM (inactive) in [2]; > 100 µM (inactive) in experiment [3]; > 100 µM (inactive) in [4]; > 100 µM (inactive) in [5]; greater than 100 µM in [6]. The GI50 in [7], in experiment [8], in [9], in [10], in experiment [11] and in experiment [12] was > 100 µM (inactive) each time. Moreover, the GI50 in experiment [13], in [14], in experiment [15], in experiment [16], in experiment [17] and in experiment [18] was > 100 µM (inactive) throughout. The GI50 was > 100 µM (inactive) in [19] and 98.6 µM (inactive) in [20].

As to `CC1=C(C)C(=O)OC(C(C)(O)C2(O)CC3OC34C3CC(O)C56OC5C=CC(=O)C6(C)C3CCC42C)C1` (centres undefined), the GI50 in [1] was 0.845 µM (active); in experiment [2] it was 2.5 µM (inactive); in [3] it was 1.5 µM (inactive); in [4], 3.4 µM (inactive); in experiment [5], 1.26 µM (inactive); in experiment [6], 0.791 µM. Further, the GI50 was 1.15 µM (inactive) in experiment [7]; 1.72 µM (inactive) in [8]; 2.16 µM (inactive) in experiment [9]; 1.15 µM (inactive) in experiment [10]; 0.586 µM (active) in experiment [11]; 4.76 µM (inactive) in experiment [12]. Also, the GI50 in experiment [13] was 1.91 µM (inactive); in [14], 1.19 µM (inactive); in [15], 1.41 µM (inactive); in experiment [16] it was 3.9 µM (inactive); in [17], 2.99 µM (inactive); in experiment [18], 1.76 µM (inactive). The results for the GI50 in [19] and in experiment [20] were 1.6 µM (inactive) and 0.617 µM (active), respectively.

Take `COc1cc(CC2c3cc(OC)c(OC)cc3CCN2C)c(Oc2cc3c(cc2OC)-c2c(O)c(OC)cc4c2C(C3)N(C)CC4)cc1OC` (centres undefined): the GI50 is 22.9 µM (inactive) in experiment [1]; 23.7 µM (inactive) in experiment [2]; 11.4 µM (inactive) in experiment [3]; 24.1 µM (inactive) in experiment [4]; 13.1 µM (inactive) in experiment [5]; 14 µM in experiment [6]. Also, the GI50 in experiment [7] was 6.82 µM (inactive); in experiment [8], 20 µM (inactive); in [9], 15 µM (inactive); in [10] it was 24 µM (inactive); in [11] it was 19.4 µM (inactive); in experiment [12], 26.7 µM (inactive). The GI50 in [13] was 22.2 µM (inactive); in experiment [14], 20.4 µM (inactive); in [15] it was 20.3 µM (inactive); in [16], 41.1 µM (inactive); in experiment [17], 22.1 µM (inactive); in [18], 24.5 µM (inactive). Besides, the results for the GI50 in experiment [19] and in experiment [20] were 14.5 µM (inactive) and 20.5 µM (inactive), respectively.

As to `O=c1[nH]c(=S)c2cc3c(=S)[nH]c(=O)n(CCC(c4ccccc4)(c4ccccc4)c4ccccc4)c3nc2n1CCC(c1ccccc1)(c1ccccc1)c1ccccc1`, the GI50 was > 100 µM (inactive) in experiment [1]; > 100 µM (inactive) in experiment [2]; > 100 µM (inactive) in [3]; > 100 µM (inactive) in experiment [4]; > 100 µM (inactive) in [5]; greater than 100 µM in experiment [6]. Also, the GI50 in [9] was > 100 µM (inactive); in experiment [10] it was > 100 µM (inactive); in experiment [11], 15.4 µM (inactive); in experiment [12], > 100 µM (inactive); in [13] it was > 100 µM (inactive); in [14], > 100 µM (inactive). For the same compound, the GI50 in [15], in experiment [16], in [17], in experiment [18], in experiment [19] and in [20] was > 100 µM (inactive) throughout.
